These are literature values, as cited in the CATMoS acute toxicity set (Mansouri et al. 2021).

Values joined by “and” are separate entries in the source; they are usually repeats but may differ in a detail not shown here. Equal values may be shown once.

The nature of the data set: rat acute oral toxicity. The following applies: in vivo.
By LD50 is commonly meant the dose expected to kill half of the subjects tested. For the compound `CCCCCCCCCCCCCCCCCCN(C)C`, the LD50 is 200 mg/kg. For the compound `CCCCC(CC)CN1C(=O)C2C3C=CC(C3)C2C1=O` (stereo unspecified), the LD50 is 2800 mg/kg.

Consider `CN(N=O)C(C)(C)c1ccccc1`, for which the LD50 was 2100 mg/kg. Take `FC(F)(F)c1nc2c(I)cc(Cl)cc2[nH]1`: the LD50 is 24 mg/kg. For the compound `N#CSCSC#N`, the LD50 is 55 mg/kg. As for `CCC1(CC)COC(=O)NC1=O`, the LD50 is 71 mg/kg. Turning to `CC(C)c1ccc(C=O)cc1`, the LD50 was 1390 mg/kg. `CCN(CC)C(=O)CCC(C)=O`: the LD50 was 4760 mg/kg.

Regarding `CCC1Cc2cc(CC(=O)O)ccc2O1` (stereo unspecified), the LD50 was 1300 mg/kg.

With `C=C(C)c1ccc(C(C)(C)N=C=O)cc1`, the LD50 is 4400 mg/kg. On to `CCC(OC(N)=O)c1ccccc1Cl` (stereo unspecified), for which the LD50 was 710 mg/kg. For `Cc1ccc(O)c([N+](=O)[O-])c1`, the LD50 was 3360 mg/kg. For `O=S(=O)(O)C(F)(F)C(F)(F)C(F)(F)C(F)(F)F`, the LD50 is 430 mg/kg. In the case of `CCN(CC)CCN1C(=O)CN=C(c2ccccc2F)c2cc(Cl)ccc21`, the LD50 was 879 mg/kg and 980 mg/kg and 978 mg/kg.

As for `COP(=S)(OC)SC(C(=O)OC(C)C)c1ccccc1` (stereo unspecified), the LD50 was 205 mg/kg. Turning to `O=c1oc2cc(Cl)ccc2n1CO`, the LD50 was 2800 mg/kg. As for `CC(C=O)=Cc1ccco1`, the LD50 is 1400 mg/kg. For the compound `CCC1(CC)C(=O)C=CN(CN2CCNCC2)C1=O`, the LD50 is 1340 mg/kg. With `COc1cc(C(=O)N2CCN(C(=O)c3cc(OC)c(OC)c(OC)c3)CC2)cc(OC)c1OC`, the LD50 was 1000 mg/kg.

In the case of `CC(C)NP(O)(=S)Oc1cc(Cl)c(Cl)cc1Cl` (stereo unspecified), the LD50 was 31 mg/kg.

For `CN1CCCCC1CCN1c2ccccc2Sc2ccc(S(C)=O)cc21` (stereo unspecified), the LD50 was 644 mg/kg. For `O=Cc1ccc2c(c1)OCO2`, the LD50 was 2700 mg/kg. For `NC(=S)Nc1ccccc1Cl`, the LD50 was 4.6 mg/kg. `CCS(=O)CCSP(=S)(OC)OC` (stereo unspecified): the LD50 is 100 mg/kg.

On to `CN(C)C(=O)n1c(Br)nc(Br)c1Br`, for which the LD50 was 50 mg/kg.

On to `C=CCN1CC[C@]23c4c5ccc(O)c4O[C@H]2[C@@H](O)C=C[C@H]3[C@H]1C5`, for which the LD50 was 1150 mg/kg. In the case of `CC(=O)OC(C)(C)CCc1ccccc1`, the LD50 is 4850 mg/kg. With `CC(Cc1ccccc1)NN` (stereo unspecified), the LD50 is 34 mg/kg. On to `S=C=Nc1ccc(N=C=S)cc1`, for which the LD50 is 21 mg/kg.

Consider `CCN(CC)CCNc1ccc(CO)c2sc3ccccc3c(=O)c12`, for which the LD50 was 980 mg/kg. With `S=C=NCCN=C=S`, the LD50 was 112 mg/kg. As to `O=[N+]([O-])c1ccc(Sc2ccc([N+](=O)[O-])cc2)cc1`, the LD50 is 1490 mg/kg. Take `CC(=O)c1cccc(N=Nc2ccc(N(C)C)cc2)c1`: the LD50 was 4820 mg/kg.

Regarding `CNC(=O)Oc1ccccc1C1OCCS1` (stereo unspecified), the LD50 was 56 mg/kg. On to `COC(=O)C1=C(C)NC(C)=C(C(=O)OCC(C)(C)CN(C)Cc2ccccc2)C1c1cc([N+](=O)[O-])ccc1F` (stereo unspecified), for which the LD50 was 30.5 mg/kg. For `C(=Nc1ccccc1)Nc1ccccc1`, the LD50 is 1900 mg/kg. Take `CC(C)C1=CCC(CCOC=O)=CC1`: the LD50 was 3570 mg/kg. Take `C=COCCOC(=O)C(=C)C`: the LD50 was 5940 mg/kg.

As for `CCCCO[Si](OCCCC)(OCCCC)N(C)C1CCCCC1`, the LD50 was 3550 mg/kg. Regarding `COc1cc(-c2ccc(N)c(OC)c2)ccc1N`, the LD50 is 1920 mg/kg.

For the compound `CN(C)N=Nc1ccc(I)cc1`, the LD50 was 574 mg/kg. Take `CCCC(=O)c1ccc2c(c1)N(CCCN1CCN(C)CC1)c1ccccc1S2`: the LD50 is 413 mg/kg. Consider `ON=CC(O)(C#Cc1ccccc1)c1ccccc1` (stereo unspecified), for which the LD50 was 8750 mg/kg. For the compound `CC(C)=NN=C(C)C`, the LD50 was 423 mg/kg. As for `C=CC(=O)OCC(CC)CC`, the 50% lethal dose (LD50) is 6490 mg/kg. With `CC(C)CNCC(C)C`, the LD50 was 258 mg/kg. With `CCCCCCCCCCCCN1CC(C)OC(C)C1` (stereo unspecified), the LD50 is 3500 mg/kg. In the case of `Clc1cnn(CCCCN2CCN(c3ncccn3)CC2)c1`, the LD50 was 374 mg/kg. As to `CCCC[C@H](C)[C@H](O)C#C[C@H]1CCC(=O)[C@@H]1CC=CCCCC(=O)OC`, the LD50 is 338 mg/kg. On to `Cc1ccc(N)cc1[N+](=O)[O-]`, for which the LD50 is 6860 mg/kg. For `C1=CC2C3CCC(C3)C2C1` (stereo unspecified), the LD50 was 670 mg/kg.

As to `CSC(C)(C)C=NOC(=O)N(C)SN1CCOCC1`, the LD50 was 1.2 mg/kg. As to `CN(C)C(=O)Oc1c(Cl)c(Cl)cc2[nH]c(C(F)(F)F)nc12`, the LD50 was 41 mg/kg. With `CN(C)N=Nc1ccc(-c2ccccc2)cc1`, the LD50 is 347 mg/kg. Regarding `C=C(CC(=O)c1ccc(-c2ccccc2Cl)cc1)C(=O)O`, the LD50 is 2400 mg/kg. On to `CC(C)c1ccc2c(c1)CC[C@H]1[C@](C)(C(=O)O)CCC[C@]21C`, for which the LD50 was 1710 mg/kg. In the case of `CC1=NN(C(=N)N=C(N)N)C(C)(C)C1`, the LD50 is 4090 mg/kg.

As for `CN1[C@@H]2CCC[C@H]1C[C@@H](NC(=O)c1nn(C)c3ccccc13)C2`, the LD50 is 350 mg/kg. Consider `C=CCC1=C(C)C(OC(=O)C2C(C)(C)C2(C)C)CC1=O` (stereo unspecified), for which the LD50 was 174 mg/kg.

In the case of `CNC(C)CC1CCCCC1` (stereo unspecified), the LD50 was 83 mg/kg. As for `CN(C)CCC(O)(c1ccccc1)c1ccccc1Cl` (stereo unspecified), the LD50 was 350 mg/kg. For `CC(C)(N=C=O)c1cccc(C(C)(C)N=C=O)c1`, the LD50 is 4600 mg/kg. With `CN1CCC(=C2c3ccccc3C=Cc3ccccc32)CC1`, the LD50 is 295 mg/kg.

For the compound `CC(O)CC=O` (stereo unspecified), the LD50 is 2180 mg/kg. Turning to `Nc1ccc(OC(F)(F)C(F)F)c(N)c1`, the LD50 was 1070 mg/kg. With `CC(=O)Oc1ccc(C2(c3ccc(OC(C)=O)cc3)C(=O)N(C(C)=O)c3ccccc32)cc1`, the LD50 was 500 mg/kg. For `c1ccc2c(c1)Cc1ccccc1N2`, the LD50 is 2140 mg/kg.

On to `C[C@H](NC(=O)[C@H](C)NC(=O)[C@@H](N)CCP(C)(=O)O)C(=O)O`, for which the LD50 was 268 mg/kg. Turning to `CC(C)OC(Cl)=C(Cl)C(Cl)=C(Cl)Cl`, the LD50 is 1210 mg/kg. Regarding `O=C1C(CCS(=O)c2ccccc2)C(=O)N(c2ccccc2)N1c1ccccc1` (stereo unspecified), the LD50 was 358 mg/kg. Take `CC(N)C(OCCN(C(C)C)C(C)C)C(=O)c1ccccc1` (stereo unspecified): the LD50 is 238 mg/kg. For `C=C(CC(C)(C)c1ccccc1)c1ccccc1`, the LD50 was 300 mg/kg.

Turning to `COc1ccc2c(c1)CCC(N(CCCCOC(=O)c1ccc(OC)c(OC)c1)C(C)C)C2` (stereo unspecified), the LD50 was 1540 mg/kg. Take `OC(CCN1CCCCC1)(c1ccccc1)C1CCCC1` (stereo unspecified): the LD50 was 628 mg/kg. Regarding `NC(N)=NC(N)=NCc1ccccc1`, the LD50 is 481 mg/kg.

Regarding `CCCOC(=O)CCC`, the LD50 was 15000 mg/kg. As to `O=C(O)[C@@H]1CC[C@H](C(=O)O)C1`, the LD50 is 3250 mg/kg. For `CCC(=O)Nc1ccc2nc(C(F)(F)F)[nH]c2c1`, the LD50 was 8.92 mg/kg.

In the case of `NC1CC1`, the LD50 was 445 mg/kg. Consider `CCCC(=O)O[C@]1(C(=O)COC(=O)CC)CC[C@H]2[C@@H]3CCC4=CC(=O)CC[C@]4(C)[C@H]3[C@@H](O)C[C@@]21C`, for which the LD50 is 5120 mg/kg.

`CN1CCC23c4c5ccc(O)c4OC2C(N=[N+]=[N-])CCC3(O)C1C5` (stereo unspecified): the LD50 was 190 mg/kg. For the compound `O=[N+]([O-])c1ccc(CCl)cc1`, the LD50 was 1810 mg/kg.

As for `CCCCC(CC)COC(CBr)c1ccccc1` (stereo unspecified), the LD50 is 250 mg/kg. Turning to `Oc1c(Cl)c(Cl)cc2[nH]c(C(F)(F)F)nc12`, the LD50 is 52 mg/kg. Take `CC(C)=CCC(CCN1CCCC1)(C(N)=O)c1cccc2ccccc12` (stereo unspecified): the LD50 was 71 mg/kg. Consider `CC(C)N1C(=O)N(c2ccccc2)CSC1=NC(C)(C)C`, for which the LD50 is 2200 mg/kg. For the compound `O=C1NCCN1c1ncc([N+](=O)[O-])s1`, the LD50 was 900 mg/kg.

On to `O=C(O)[C@@H]1CS[C@H](c2ccccc2O)N1C(=O)CCS`, for which the LD50 is 8290 mg/kg. As to `CCC(C)(N)C#N` (stereo unspecified), the LD50 is 74 mg/kg.

With `CCCCC(C)(C)[C@H](O)C=C[C@H]1[C@H](O)CC(=O)[C@@H]1CCCCC=CC(=O)OC`, the LD50 is 56.5 mg/kg. `CC1=CCC(=C(C)C)CC1`: the LD50 is 4390 mg/kg. As for `COc1ccc(C[C@H]2NC[C@H](O)[C@H]2OC(C)=O)cc1`, the LD50 was 72 mg/kg.

With `CCCc1ccn[nH]1`, the LD50 is 616 mg/kg. Consider `Cc1cc2[nH]c(C(F)(F)F)nc2cc1Cl`, for which the LD50 was 55 mg/kg. Turning to `CC(=O)OC1CC2(O)C(CCC3(C)C(c4ccc(=O)oc4)CCC32O)C2(C)CCC(O)C=C12` (stereo unspecified), the LD50 was 4.2 mg/kg.

As for `CN(C)c1ccc(N)c2ccccc12`, the LD50 was 400 mg/kg. Consider `CCOC(=O)NCCOc1ccc(Oc2ccccc2)cc1`, for which the LD50 is 16800 mg/kg. For `COc1ccc(C(=O)CCC(=O)O)c2cc(C)oc12`, the LD50 was 2160 mg/kg. Regarding `O=S(=O)(O)c1cc(O)ccc1O`, the LD50 is 7500 mg/kg. For `CCCc1c(OCc2cccn3c(=O)c(CCC(=O)O)cnc23)ccc(C(C)=O)c1O`, the LD50 was 4000 mg/kg. As for `CNC(=O)ON=C1C(Cl)C2CC(C#N)C1C2` (stereo unspecified), the LD50 is 24 mg/kg. Turning to `Cc1nc2n(c(=O)c1CCN1CCC(c3noc4cc(F)ccc34)CC1)CCCC2`, the LD50 was 56.6 mg/kg. Turning to `COc1ccc(C(Oc2ccccc2)C2=NCCCN2)cc1F` (stereo unspecified), the LD50 was 1000 mg/kg.

In the case of `CC(C)(C)NCCO`, the LD50 is 1620 mg/kg. In the case of `CNC(=O)ON=C1CSCS1`, the LD50 was 13 mg/kg. Regarding `O=C1NC(=O)C2C3C(C(O)(c4ccccc4)c4ccccn4)=CC(C3=C(c3ccccc3)c3ccccn3)C12` (stereo unspecified), the LD50 is 6 mg/kg. With `CCOP(=O)(OCC)SCSP(=S)(OCC)OCC`, the LD50 was 35.1 mg/kg. With `C1C[SiH2]C1`, the LD50 is 1540 mg/kg.

For `COP(=O)(OC)OC(=C(Cl)Br)c1ccc(Cl)cc1Cl`, the median lethal dose (LD50) was 107 mg/kg. As to `CNC(=O)Oc1cc(C)c(C)c(C)c1`, the LD50 was 178 mg/kg. With `OC(c1ccccc1)(c1ccccc1)C1CCCCN1` (stereo unspecified), the LD50 was 180 mg/kg. Consider `COCc1cc(C(C)(C)C)c(O)c(C(C)(C)C)c1`, for which the LD50 was 10600 mg/kg. Regarding `O=C(c1ccccc1)c1cccc2c1CCC2C(=O)O` (stereo unspecified), the LD50 was 41.1 mg/kg. For the compound `Cc1c(Cl)c(Br)cc2[nH]c(C(F)(F)F)nc12`, the LD50 is 30 mg/kg.

On to `CN1CCC(=C2c3ccccc3Oc3ccc(Cl)cc32)CC1`, for which the LD50 was 319 mg/kg. For `O=C(NCCc1ccc(O)cc1)c1cccnc1`, the LD50 was 8500 mg/kg. Regarding `CO[Si](C)(CCCNCCN)OC`, the LD50 is 200 mg/kg. With `CCCC/C=C\CCCCCCOC(C)=O`, the LD50 is 13400 mg/kg. Take `CN1CCN(CCC=C2c3ccccc3Sc3ccc(S(=O)(=O)N(C)C)cc32)CC1`: the LD50 was 720 mg/kg. As for `O=C(NP(=O)(N1CC1)N1CC1)c1cc(I)ccc1I`, the LD50 is 500 mg/kg. Take `CCn1c(=O)c2ccccc2n(-c2cccc(C(F)(F)F)c2)c1=O`: the LD50 was 1500 mg/kg.
